Test results published in patent US20240425464A1, “Substituted Monohydrazides as Potent Antifungal Agents” (University of Kentucky Research Foundation, priority 2023, published 2024).
Values after ≈ are worked out from the molar mass of the structure shown.

How the values were obtained:
[1] = tested on: Candida auris strain AR Bank #384 (K); test: MIC determination by in vitro antifungal assay; type: cell-based; conditions: Candidozyma auris, C. auris AR Bank # 384 (K) (Table 2B); read-out: MIC
Method: (§1) The antifungal agent amphotericin B (AmB) was purchased from VWR (Radnor PA, USA). AmB was dissolved in DMSO at a final concentration of 5 mg/mL and was stored at −20° C., protected from light. Candida albicans American Type Culture Collection (ATCC) 10231 (strain A), C. albicans ATCC 64124 (B), and C. albicans ATCC MYA-2876 (C) were obtained from Utah State University. C. albicans ATCC 90819 (D), C. albicans ATCC MYA-2310 (E), C. albicans ATCC MYA-1237 (F), C. albicans ATCC MYA-1003 (G), Candida glabrata ATCC 2001 (H), Candida krusei ATCC 6258 (I), Candida parapsilosis ATCC 22019 (J), Cryptococcus neoformans ATCC MYA-895 (M), Aspergillus terreus ATCC MYA-3633 (N), and Aspergillus flavus ATCC MYA-3631 (0) were obtained from the American Type Culture Collection (ATCC; Manassas, VA, USA). Aspergillus nidulans ATCC 38163 (P) was obtained from University of Kentucky. Clinically derived Aspergillus fumigatus NRRL 163 (Q), A. fumigatus NRRL 5109 (R), and A. fumigatus NRRL 6113 (S) were obtained from Northern Regional Research Laboratory (NRRL). Candida auris 384 (K), C. auris 390 (L), and fungal strains 381-400 (including 10 C. auris (AR Bank #381-390), 3 Candida duobushaemulonii (AR Bank #391, AR Bank #392, and AR Bank #394), 2 Candida haemulonii (AR Bank #393 and AR Bank #395), 1 Kodameae ohmeri (AR Bank #396), 1 C. krusei (AR Bank #397), 1 Candida lusitaniae (AR Bank #398), and 2 Saccharomyces cerevisiae strains (AR Bank #399 and AR Bank #400)) were part of a larger fungal library from the AR Bank maintained by the Centers for Disease Control and Prevention (CDC; Atlanta, GA, USA). Filamentous fungi and yeasts were cultivated at 35° C. in RPMI 1640 medium (with L-glutamine, without sodium bicarbonate, Sigma-Aldrich, St. Louis, MO) buffered to a pH of 7.0 with 0.165 M morpholinepropanesulfonic acid (MOPS) buffer (Sigma-Aldrich). For cytotoxicity assays, HepG2 and the mouse macrophage cell line J774A.1 were obtained from University of Kentucky. The human embryonic kidney cell line, HEK-293, was bought from the ATCC. Mammalian cells were grown in Dulbecco's Modified Eagle's Medium (DMEM) (from VWR) with 10% fetal bovine serum (FBS) (from VWR) and 1% Pen/Strep (from ATCC). Cell lines were cultured at 37° C. with 5% CO2 and passaged by trypsinization with 0.05% trypsin: 0.53 mM EDTA (from Sigma-Aldrich).
(§2) From the actively growing yeast culture, 100 µL were then transferred to 900 μL of RPMI 1640 medium and re-adjusted to achieve OD600 of 0.12 (˜1×10^6 CFU/mL). The cell suspension was further diluted to achieve 1:100 in RPMI 1640 medium.
(§3) Finally, the activity of these monohydrazides was explored against […] non-Candida strains: Cryptococcus neoformans ATCC MYA-895 (M), Aspergillus terreus ATCC MYA-3633 (N), Aspergillus flavus ATCC MYA-3631 (O), Aspergillus nidulans ATCC 38163 (P), Aspergillus fumigatus NRRL 163 (Q), A. fumigatus NRRL 5109 (R), and A. fumigatus NRRL 6113 (S) (Tables 1A and 1B). The double dilution method was used with concentrations ranging from 0.06 to 31.3 j·tg mL^−1 for monohydrazides 1a-9j, and the commercially available positive antifungal control amphotericin B (AmB).

[2] = tested on: C. auris strain AR Bank #390 (L); test: MIC determination by in vitro antifungal assay; type: cell-based, Candida auris; conditions: Candidozyma auris, C. auris AR Bank # 390 (L) (Table 2B); read-out: MIC
Method: as §1, §2, §3

C. auris AR Bank #385 = test: MIC determination by in vitro antifungal assay; type: cell-based, Candida auris; conditions: Candidozyma auris; C. auris AR Bank # 385 (Table 2B); read-out: MIC
Method: as §1, §2

C. auris AR Bank #389 = test: MIC determination by in vitro antifungal assay; type: cell-based, Candida auris; conditions: Candidozyma auris; C. auris AR Bank # 389 (Table 2B); read-out: MIC
Method: as §1, §2

C. auris AR Bank #387 = test: MIC determination by in vitro antifungal assay; type: cell-based, Candida auris; conditions: Candidozyma auris; C. auris AR Bank # 387 (Table 2B); read-out: MIC
Method: as §1, §2

C. auris AR Bank #388 = test: MIC determination by in vitro antifungal assay; type: cell-based, Candida auris; conditions: Candidozyma auris; C. auris AR Bank # 388 (Table 2B); read-out: MIC
Method: as §1, §2

C. auris AR Bank #386 = test: MIC determination by in vitro antifungal assay; type: cell-based, Candida auris; conditions: Candidozyma auris; C. auris AR Bank # 386 (Table 2B); read-out: MIC
Method: as §1, §2

C. auris AR Bank #381 = test: MIC determination by in vitro antifungal assay; type: cell-based, Candida auris; conditions: Candidozyma auris; C. auris AR Bank # 381 (Table 2B); read-out: MIC
Method: as §1, §2

C. auris AR Bank #383 = test: MIC determination by in vitro antifungal assay; type: cell-based, Candida auris; conditions: Candidozyma auris; C. auris AR Bank # 383 (Table 2B); read-out: MIC
Method: as §1, §2

C. auris AR Bank #382 = test: MIC determination by in vitro antifungal assay; type: cell-based, Candida auris; conditions: Candidozyma auris; C. auris AR Bank # 382 (Table 2B); read-out: MIC
Method: as §1, §2

[3] = tested on: panel of ten C. auris strains (AR Bank #381-390); test: MIC determination, summary over the C. auris panel; type: cell-based, Candida auris; conditions: Candidozyma auris; against all ten C. auris strains tested (AR Bank #381-390)
Method: as §1, §2

Question: Which results are given for `COc1cccc(NNC(=O)c2cccc(F)n2)c1` [Compound 5c]?
Answer: MIC [1]: 0.49 µg/mL (≈ 1.88 µM); MIC [2]: 3.9 µg/mL (≈ 14.9 µM); MIC (C. auris AR Bank #385): 0.98 µg/mL (≈ 3.75 µM); MIC (C. auris AR Bank #389): 0.98 µg/mL (≈ 3.75 µM); MIC (C. auris AR Bank #387): 0.49 µg/mL (≈ 1.88 µM); MIC (C. auris AR Bank #388): 0.98 µg/mL (≈ 3.75 µM); MIC (C. auris AR Bank #386): 0.98 µg/mL (≈ 3.75 µM); MIC (C. auris AR Bank #381): 0.98 µg/mL (≈ 3.75 µM); MIC (C. auris AR Bank #383): 1.95 µg/mL (≈ 7.46 µM); MIC (C. auris AR Bank #382): 0.49 µg/mL (≈ 1.88 µM); MIC [3]: 0.12 to 7.8 µg/mL (≈ 0.459 to 29.9 µM)
